What is called GI50 is the concentration that inhibits growth by half. A low value points to more potent growth inhibition. The IC50 is the concentration needed to halve the response being measured. A word on the solubility: it is how much of the substance goes into solution per volume. A low value points to little dissolved substance.

In brackets after ≈: the same amount, converted by molar mass.

The text below walks through data of patent US8039634B2, “Oxazole hydroxamic acid derivatives and use thereof” (SK Holdings Co., Ltd., priority 2005, dated 2011).

The subject of one series is HeLa. In words: In vitro toxicity / growth inhibition (CellTiter-Glo), HeLa. The format is cell-based. As to conditions: Homo sapiens, 48 hr. Here is the method:
(§1) In order to determine in vitro toxicity of a compound in accordance with the present invention, 18 species of human cancer cell lines (HeLa, cervical cancer cell line; HCT116, SW480, SW620, RKO, colon cancer cell lines; H460, H1299, A549, lung cancer cell lines; MCF7, MDA-MB231, MDA-MB453, breast cancer cell lines; Jurkat, K562, THP1, Ramos, U937, blood cancer cell lines; PC3, DU145, prostate cancer cell lines) were used. Cell lines were cultured in RPMI 1640 culture medium containing penicillin/streptomycin (100 units/mL) and heat-inactivated 5% fetal bovine serum (FBS) under standard culture conditions ([…], 5% CO2, and 100% relative humidity). Thereafter, single cell suspension was obtained via trypsin treatment and pipetting. The suspension was diluted with the same medium such that a cell density is in a range of 8×10^3 to 1.5×10^4 cells/well, and was transferred to a 96-well microtiter plate. After culturing for 24 hours, cell cultures were treated with respective compounds of Examples at various concentrations. […] The above evaluation was carried out according to the methods given in a manufacture's manual. GI50 in Table 1 below refers to a concentration that compounds of Examples cause 50% growth inhibition of various cancer cells.
(In general: Cellular ATP, detected with luciferase, serves as a proxy for viable cell number.)

The test system of a further series is HCT116. The experiment in a line: In vitro toxicity / growth inhibition (CellTiter-Glo), HCT116. To be noted: Homo sapiens, HCT-116; HCT116, 48 hr. In kind it is cell-based. On the procedure:
as §1

The next series deals with HDAC. The experiment in a line: Inhibition of HDAC activity (fluorometric, HeLa nuclear extract). In kind it is biochemical, human. To be noted: 30 min room temperature. On the procedure: In order to determine inhibitory activity of a compound in accordance with the present invention on HDAC, evaluation was carried out using an aminocoumarin derivative of ω-acetylated lysine as a substrate for an enzyme. As an enzyme source, a nuclear extract obtained from human cervical cancer cell line HeLa cells was used. The above evaluation was carried out with modification of a method based on the details described in Weegener et al. (2003) Analytical Biochemistry, 321, 203-208. That is, […], […] of nuclear extract and a compound of Example 1 at different concentrations were added and maintained at room temperature for 30 min. Trypsin (10 mg/ml) and Trichostatin A (final concentration: […]) were added to the resulting mixture which was reacted at the same temperature for 20 min, thereby terminating the reaction. The enzyme activity-inhibitory concentration of the compound added was determined using a fluorometer. As a control compound, suberoylanilide hydroxamic acid (SAHA) was used. IC50 in Table 1 below refers to a concentration of the compound that leads to a 50% decrease in activity of HDAC.

A short description of another series: Solubility. In kind it is physicochemical.
Another series deals with Raw cell. In words: Inhibition of LPS-induced NO increases. The format is cell-based, Mouse. To be noted: 5 μM compound; for NO: LPS, 18 hours, Griess Reagent; for activity at 5 µM: Mus musculus, 18 h, relative to LPS alone control. On the procedure:
As one of the methods to confirm anti-inflammatory responses, inhibition of increases in nitric oxide (NO) due to lipopolysaccharide (LPS) was carried out. Mouse cell line (Raw cell) was cultured in RPMI 1640 culture medium containing penicillin/streptomycin (100 units/mL) and heat-inactivated 5% fetal bovine serum (FBS) under standard culture conditions ([…], 5% CO2, 37° C., and 100% relative humidity). Test compounds were dissolved in dimethylsulfoxide (DMSO) and were used as a final concentration of 1 to 40 μM. Cells were proliferated to a cell density of 5×10^3 to 2×10^4 cells on a 24-well plate and were treated with the respective compounds (equal amounts of 5 μM) 1 hour prior to treatment with LPS ([…]). The thus-treated cells were cultured for 18 hours, and thereafter the amounts of NO thus produced were measured using Griess Reagent. Measurement was confirmed using an absorption spectrophotometer at 540 nm. The value was expressed as percentage (%) relative to a control in which LPS alone was treated.
In general terms: The Griess reaction detects nitrite, a stable product of nitric oxide.

A further series relates to MCF7. In words: In vitro toxicity / growth inhibition (CellTiter-Glo), MCF7. The format is cell-based. To be noted: Homo sapiens; MCF7, 48 hr. On the procedure: as §1
A further series deals with H460. The experiment in a line: In vitro toxicity / growth inhibition (CellTiter-Glo), H460. In kind it is cell-based. To be noted: Homo sapiens, NCI-H460; H460, 48 hr. Here is the method:
as §1

For the compound `COc1ccccc1-c1oc(CCCCCCC(=O)NO)nc1-c1ccccc1` [Example 2, 7-[5-(2-methoxy-phenyl)-4-phenyl-oxazol-2-yl]-heptanoic acid hydroxyamide], in the series with HeLa, growth was halved (GI50) at 9.33 µM. In the series on HCT116, this compound yielded a GI50 of 8.3 µM. The compound further returned an IC50 with HDAC of 0.00661 µM. Further, the concentration in solution in the series “Solubility” (solubility) came to 400 µg/mL (≈ 1010 µM). In the series on Raw cell, the NO worked out at 77.9 μM/L and the activity at 5 µM is 97.8%.

On to `COc1cccc(-c2oc(CCCCCCC(=O)NO)nc2-c2ccccc2)c1` [Example 3, 7-[5-(3-methoxy-phenyl)-4-phenyl-oxazol-2-yl]-heptanoic acid hydroxyamide], for which the results for the GI50 in the series on HeLa and with HCT116 were 16.9 µM and 6.5 µM, respectively. In the series with HDAC, this compound showed an IC50 of 0.00158 µM. Also, in “Solubility”, the solubility came out at 200 µg/mL (≈ 507 µM).

As to `O=C(CCCCCCc1nc(-c2ccccc2)c(-c2ccccc2)o1)NO` [Example 4, 7-(4,5-diphenyl-oxazol-2-yl)-heptanoic acid hydroxyamide], the GI50 in the series on HeLa turned out to be 2.5 µM; with MCF7, 6.6 µM; in the series with HCT116, 3.5 µM. In the series on HDAC, half-maximal inhibition (IC50) was put at 0.002 µM. The compound also showed a solubility in the series “Solubility” of 200 µg/mL (≈ 549 µM).

`O=C(CCCCCCc1nc(-c2ccccc2)c(-c2ccccc2F)o1)NO` [Example 5, 7-[5-(2-fluoro-phenyl)-4-phenyl-oxazol-2-yl]-heptanoic acid hydroxyamide]: the GI50 worked out at 14.2 µM in the series with H460, 3.6 µM in the series with HeLa and 10.7 µM with HCT116. This compound came in with an IC50 with HDAC of 0.00174 µM. This compound had a solubility in “Solubility” of 300 µg/mL (≈ 784 µM). In the series on Raw cell, this compound registered an NO of 69.0 μM/L. In addition, in the series with Raw cell, the activity at 5 µM was 72.7%.

Regarding `O=C(CCCCCCc1nc(-c2ccccc2)c(-c2cccc(F)c2)o1)NO` [Example 6, 7-[5-(3-fluoro-phenyl)-4-phenyl-oxazol-2-yl]-heptanoic acid hydroxyamide], the GI50 is 15.8 µM in the series on H460, 10.7 µM with HeLa, 3.8 µM in the series with MCF7 and 9.5 µM in the series on HCT116. This compound also had an IC50 in the series on HDAC of 0.00148 µM. The compound further showed a solubility in “Solubility” of 400 µg/mL (≈ 1050 µM). Moreover, in the series with Raw cell, the NO turned out to be 70.6 μM/L. In the series with Raw cell, this compound registered an activity at 5 µM of 77.1%.

Take `Cc1ccc(-c2oc(CCCCCCC(=O)NO)nc2-c2ccccc2)cc1` [Example 7, 7-(4-phenyl-5-p-tolyl-oxazol-2-yl)-heptanoic acid hydroxyamide]: the GI50 came out at 9.9 µM with H460, 2.4 µM in the series with HeLa and 2.7 µM with HCT116. Further, it took 0.002 µM to reach half-maximal inhibition in the series on HDAC (IC50). Besides, in “Solubility”, the concentration in solution (solubility) came to 200 µg/mL (≈ 528 µM).

Take `CCOc1ccc(-c2oc(CCCCCCC(=O)NO)nc2-c2ccccc2)cc1` [Example 8, 7-[5-(4-ethoxy-phenyl)-4-phenyl-oxazol-2-yl]-heptanoic acid hydroxyamide]: the GI50 stood at 4.2 µM with H460, 1.5 µM in the series with HeLa and 1.2 µM in the series on HCT116. For the same compound, the IC50 with HDAC was 0.0012 µM. The same compound came in with a solubility in “Solubility” of 200 µg/mL (≈ 490 µM). For the same compound, the NO in the series on Raw cell is reported as 63.7 μM/L. The same compound returned an activity at 5 µM with Raw cell of 57.7%.

As to `O=C(CCCCCCc1nc(-c2ccccc2)c(-c2ccc(F)cc2)o1)NO` [Example 9, 7-[5-(4-fluoro-phenyl)-4-phenyl-oxazol-2-yl]-heptanoic acid hydroxyamide], the GI50 was 19.1 µM in the series on H460, 14.2 µM in the series with HeLa and 5.9 µM in the series on HCT116. Moreover, the IC50 with HDAC stood at 0.00497 µM. Besides, the NO in the series on Raw cell was found to be 71.4 μM/L. In the series with Raw cell, this compound registered an activity at 5 µM of 79.4%.

As to `COc1ccc(-c2nc(CCCCCCC(=O)NO)oc2-c2ccc(OC)cc2)cc1` [Example 10, 7-[4,5-bis-(4-methoxy-phenyl)-oxazol-2-yl]-heptanoic acid hydroxyamide], the GI50 in the series with H460 worked out at 9.2 µM; with HeLa, 3 µM; with MCF7, 0.8 µM; in the series on HCT116, 2.4 µM. The compound further registered an IC50 in the series with HDAC of 0.00047 µM. Moreover, the solubility in the series “Solubility” was found to be 200 µg/mL (≈ 471 µM).

As for `COc1ccc(-c2oc(CCCCCCC(=O)NO)nc2-c2ccccc2OC)cc1` [Example 11, 7-[4-(2-methoxy-phenyl)-5-(4-methoxy-phenyl)-oxazol-2-yl]-heptanoic acid hydroxyamide], the GI50 came out at 10.2 µM in the series with H460, 1.2 µM with HeLa and 2.4 µM in the series with HCT116. Further, the IC50 in the series on HDAC is 0.00724 µM. The solubility in the series “Solubility” is 400 µg/mL (≈ 942 µM). This compound also registered an NO in the series on Raw cell of 65.0 μM/L. The compound further displayed an activity at 5 µM in the series on Raw cell of 61.3%.

For the compound `CN(C)c1ccc(-c2oc(CCCCCCC(=O)NO)nc2-c2ccccc2)cc1` [Example 12, 7-[5-(4-dimethylamino-phenyl)-4-phenyl-oxazol-2-yl]-heptanoic acid hydroxyamide], the GI50 in the series with H460 was determined as 19.5 µM; in the series on HeLa, 14.1 µM; with MCF7, 6.9 µM; in the series on HCT116, 9.8 µM. In the series on HDAC, this compound registered an IC50 of 0.00501 µM. Besides, the solubility in “Solubility” was determined as 700 µg/mL (≈ 1720 µM). The NO with Raw cell is 72.9 μM/L. Besides, the activity at 5 µM in the series with Raw cell was found to be 83.7%.

Regarding `O=C(CCCCCCc1nc(-c2ccc(F)cc2)c(-c2cccnc2)o1)NO` [Example 15, 7-[4-(4-fluoro-phenyl)-5-pyridin-3-yl-oxazol-2-yl]-heptanoic acid hydroxyamide], the GI50 in the series with H460 amounted to 69 µM. The compound also had a GI50 with HeLa of 30.1 µM. In the series on HDAC, this compound gave an IC50 of 0.0384 µM. The compound also had a solubility in the series “Solubility” of 2000 µg/mL (≈ 5220 µM). In the series on Raw cell, this compound came in with an NO of 66.6 μM/L and an activity at 5 µM of 65.8%.

Compound `O=C(CCCCCCc1nc(-c2cccc(F)c2)c(-c2cccnc2)o1)NO` [Example 16, 7-[4-(3-fluoro-phenyl)-5-pyridin-3-yl-oxazol-2-yl]-heptanoic acid hydroxyamide] had a GI50 in the series on H460 of 52.3 µM. Further, it took 20.7 µM to inhibit growth in the series with HeLa by half (GI50). This compound also showed a half-maximal inhibitory concentration (IC50) in the series with HDAC of 0.0323 µM. Moreover, the solubility in “Solubility” was determined as 1400 µg/mL (≈ 3650 µM). In the series on Raw cell, the NO is on record as 63.0 μM/L and the activity at 5 µM amounted to 55.7%.

`COc1ccc(-c2oc(CCCCCCC(=O)NO)nc2-c2ccncc2)cc1` [Example 18, 7-[5-(4-methoxy-phenyl)-4-pyridin-4-yl-oxazol-2-yl)-heptanoic acid hydroxyamide]: the results for the GI50 in the series on H460, with HeLa and in the series on HCT116 were 11.7 µM, 9.1 µM and 3.8 µM, respectively. For the same compound, the IC50 with HDAC was 0.014 µM. Besides, the solubility in the series “Solubility” was determined as 900 µg/mL (≈ 2280 µM). Moreover, the NO in the series with Raw cell came out at 68.6 μM/L. Besides, the activity at 5 µM in the series on Raw cell was found to be 71.6%.

Turning to `CCOc1ccc(-c2oc(CCCCCCC(=O)NO)nc2-c2ccncc2)cc1` [Example 19, 7-[5-(4-ethoxy-phenyl)-4-pyridin-4-yl-oxazol-2-yl]-heptanoic acid hydroxyamide], the GI50 in the series on H460 came out at 4.1 µM; with HeLa, 2.9 µM; in the series with MCF7, 1.1 µM; in the series on HCT116 it was 4 µM. Besides, the IC50 in the series on HDAC was found to be 0.00068 µM. This compound also displayed a solubility in the series “Solubility” of 700 µg/mL (≈ 1710 µM).

Take `O=C(CCCCCCc1nc(-c2ccccc2)c(-c2ccc(O)cc2)o1)NO` [Example 20, 7-[5-(4-hydroxy-phenyl)-4-phenyl-oxazol-2-yl]-heptanoic acid hydroxyamide]: the results for the GI50 in the series on H460, with HeLa and in the series with HCT116 were 5.4 µM, 2.4 µM and 1.5 µM, respectively. The compound also came in with an IC50 in the series on HDAC of 0.0017 µM. For the same compound, in the series “Solubility”, the concentration in solution (solubility) was 300 µg/mL (≈ 789 µM). Moreover, the NO in the series with Raw cell is 55.9 μM/L. Moreover, the activity at 5 µM with Raw cell amounted to 35.9%.
